Measured values from patent US8541405B2, “Methods for the preparation of Ivabradine sulfate and form I crystal thereof” (Jiangsu Hengrui Medicine Co., Ltd., priority 2009, dated 2013).
Structures can show the parent of a compound that is named as a salt.

What was measured:
[1] = pH of the Ivabradine sulfate aqueous solution; format: physicochemical; settings: C=1%
Protocol: (§1) 4.3 g of […] was dissolved in 100 ml of acetone, then 30 ml of acetone containing 1 g of sulfuric acid was added. The obtained mixture was stirred and white crystals were precipitated from the reaction solution. The resulting precipitate was collected by filtration, washed with acetone and then dried at 60° C. in vacuum for 3 hours to obtain 4.8 g of Ivabradine sulfate. Melting point was determined by capillary crystalline approach at 156˜158° C. Water content is 0.8%. The pH of the Ivabradine sulfate aqueous is about 1.8 (C=1%). Yield: 90.5%.
as §1, with “containing 0.4” for “containing 1”, “obtain 1.2” for “obtain 4.8”, “Yield: 55.5%. It is form I crystal of Ivabradine sulfate judged by X-ray and DSC patterns.” for “Yield: 90.5%.”

[2] = Stability test of crystal samples placed open in the air (illumination, heating, humidity), HPLC analysis; format: physicochemical; settings: for HPLC analysis result, 60° C.: heating 60° C.; for HPLC analysis result, 60° C. / HPLC analysis result, RH90% / HPLC analysis result, Light: open in air; for HPLC analysis result, RH90%: humidity RH 90%; for HPLC analysis result, Light: illumination 4500 Lux
From the text: The stability investigation of different Ivabradine hydrochloride crystal form: three different solvents crystallization of samples were obtained in turn according to the method of example 4 except that Ivabradine sulfate is substituted with Ivabradine hydrochloride and ethanol is substituted with acetonitrile, ethyl acetate, acetone.
Moreover, α-form crystal samples can be obtained using toluene, N-methyl pyrrole as crystallization solvents according to the method disclosed in CN1583341A.
The four samples obtained above and the form I crystal of Ivabradine sulfate prepared in example 1 were placed opening in the air to test the stability in various conditions including illumination (4500 Lux), heating (60° C.), humidity (RH 90%).

Structure (SMILES) | HPLC analysis result, 60° C. ([2]; Time 0 day, hydrochloride) [%] | HPLC analysis result, 60° C. ([2]; Time 5 days, hydrochloride) [%] | HPLC analysis result, 60° C. ([2]; Time 10 days, hydrochloride) [%] | HPLC analysis result, RH90% ([2]; Time 0 day, hydrochloride) [%] | HPLC analysis result, RH90% ([2]; Time 5 days, hydrochloride) [%] | HPLC analysis result, RH90% ([2]; Time 10 days, hydrochloride) [%] | HPLC analysis result, Light ([2]; Time 0 day, hydrochloride) [%] | HPLC analysis result, Light ([2]; Time 5 days, hydrochloride) [%] | HPLC analysis result, Light ([2]; Time 10 days, hydrochloride) [%] | other results
COc1cc2c(cc1OC)CC(=O)N(CCCN(C)C[C@H]1Cc3cc(OC)c(OC)cc31)CC2 [Ivabradine sulfate 20080922, Ivabradine sulfate] |  |  |  |  |  |  |  |  |  | pH of the Ivabradine sulfate aqueous [1]: about 1.8; HPLC analysis result, 60° C. ([2]; Time 0 day): 99.46%; HPLC analysis result, 60° C. ([2]; Time 5 days): 99.42%; HPLC analysis result, 60° C. ([2]; Time 10 days): 99.40%; HPLC analysis result, RH90% ([2]; Time 0 day): 99.46%; HPLC analysis result, RH90% ([2]; Time 5 days): 99.28%; HPLC analysis result, RH90% ([2]; Time 10 days): 99.19%; HPLC analysis result, Light ([2]; Time 0 day): 99.46%; HPLC analysis result, Light ([2]; Time 5 days): 99.42%; HPLC analysis result, Light ([2]; Time 10 days): 99.39%; stability compared with the α-form crystal of Ivabradine hydrochloride ([2]; under high moisture conditions): more stable; stability compared with the α-form crystal of Ivabradine hydrochloride ([2]; under the light and heat condition): similar; stability compared with the polymorphism or mixed crystal of Ivabradine hydrochloride from acetonitrile, ethyl acetate, acetone ([2]; under various conditions): improved significantly
COc1cc2c(cc1OC)CC(=O)N(CCCN(C)C[C@H]1Cc3cc(OC)c(OC)cc31)CC2 [Ivabradine sulfate 20080618, Ivabradine hydrochloride] | 99.54 | 99.50 | 99.46 | 99.54 | 99.23 | 99.00 | 99.54 | 99.47 | 99.42 | 
COc1cc2c(cc1OC)CC(=O)N(CCCN(C)C[C@H]1Cc3cc(OC)c(OC)cc31)CC2 [Ivabradine hydrochloride 20080908, Ivabradine hydrochloride] | 99.56 | 98.74 | 99.04 | 99.56 | 99.03 | 98.61 | 99.56 | 97.45 | 94.91 | 

Second part, led by results:

HPLC analysis result, 60° C. ([2]; Time 0 day, hydrochloride) [%] | HPLC analysis result, 60° C. ([2]; Time 5 days, hydrochloride) [%] | HPLC analysis result, 60° C. ([2]; Time 10 days, hydrochloride) [%] | HPLC analysis result, RH90% ([2]; Time 0 day, hydrochloride) [%] | HPLC analysis result, RH90% ([2]; Time 5 days, hydrochloride) [%] | HPLC analysis result, RH90% ([2]; Time 10 days, hydrochloride) [%] | HPLC analysis result, Light ([2]; Time 0 day, hydrochloride) [%] | HPLC analysis result, Light ([2]; Time 5 days, hydrochloride) [%] | HPLC analysis result, Light ([2]; Time 10 days, hydrochloride) [%] | Structure (SMILES) | other results
99.57 | 99.36 | 99.05 | 99.57 | 99.20 | 98.91 | 99.57 | 99.29 | 98.87 | COc1cc2c(cc1OC)CC(=O)N(CCCN(C)C[C@H]1Cc3cc(OC)c(OC)cc31)CC2 [Ivabradine hydrochloride 20080912, Ivabradine hydrochloride] | 
99.55 | 99.31 | 99.12 | 99.55 | 99.10 | 98.42 | 99.55 | 98.88 | 98.07 | COc1cc2c(cc1OC)CC(=O)N(CCCN(C)C[C@H]1Cc3cc(OC)c(OC)cc31)CC2 [Ivabradine hydrochloride 20080911, Ivabradine hydrochloride] | 
